This passage reports IC50 results from US11472798B2 (Mission Therapeutics Limited, priority 2014, dated 2022).

pIC50: −log10 of the molar value. A value given as a limit tells only on which side of the number the result lay.

The target in this assay is T1, UCHL1 (Homo sapiens, UniProt P09936).
T1 construct: made in house; host or cells: HEK293T
T1 sequence (P09936 1-223): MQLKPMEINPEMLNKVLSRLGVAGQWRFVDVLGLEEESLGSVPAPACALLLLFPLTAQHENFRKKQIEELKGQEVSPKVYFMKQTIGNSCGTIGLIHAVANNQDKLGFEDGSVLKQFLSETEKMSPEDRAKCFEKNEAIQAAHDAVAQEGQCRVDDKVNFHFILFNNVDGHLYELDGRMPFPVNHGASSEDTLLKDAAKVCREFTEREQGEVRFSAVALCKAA
Briefly: UCHL1 biochemical IC50 assay (fluorescence polarisation). The settings on record: 30 min enzyme/compound pre-incubation at room temp, read after 2 hr incubation, read-out: Activity range (UCHL1 biochemical IC50 assay). From the text: Biological Activity of Compounds of the Invention Abbreviations: TAMRA carboxytetramethylrhodamine PCR polymerase chain reaction PBS phosphate buffered saline EDTA ethylenediaminetetraacetic acid Tris 2-amino-2-(hydroxymethyl)-1,3-propanediol NP-40 Nonidet P-40, octylphenoxypolyethoxyethanol BSA bovine serum albumin In Vitro UCHL1 Inhibition Assay Expression and Purification of UCHL1
The UCHL1 construct was PCR amplified and cloned into a pFLAG-CMV-6a vector (Sigma-Aldrich) with an N-terminal FLAG tag. HEK293T cells were transfected with FLAG-UCHL1 using TransIT-LT1 transfection reagent (Mirus) according to the manufacturer's instructions. Cells were harvested 40 hours after transfection. Cells were washed once with PBS and scraped in lysis buffer (50 mM Tris, pH 7.5, 150 mM NaCl, 3 mM EDTA, 0.5% NP40, 10% glycerol, 5 mM beta-mercaptoethanol, protease inhibitors (complete mini, Roche) and phosphatase inhibitors (PhosSTOP mini, Roche). Lysates were incubated for 30 min on ice and centrifuged at 1200 rpm for 10 min at 4° C. Soluble supernatant was added to FLAG affinity resin (EZview Rad ANTI-FLAG M2 affinity gel, Sigma-Aldrich) equilibrated in low salt buffer (20 mM Tris, pH 7.5, 150 mM NaCl, 0.5 mM EDTA, 5 mM beta-mercaptoethanol) and incubated at 4° C. for 3 hours rotating. The resin was spun at 2000 rpm for 2 min and the supernatant was removed. The resin was washed two times with low salt buffer and one time with high salt buffer (20 mM Tris, pH 7.5, 500 mM NaCl, 0.5 mM EDTA, 5 mM beta-mercaptoethanol, protease inhibitors (complete mini, Roche) and phosphatase inhibitors (PhosSTOP mini, Roche). To elute the bound UCHL1, elution buffer (10 mM Tris, pH 7.5, 150 mM NaCl, 0.5 mM FDTA, 10% glycerol, 0.5% NP40, 5 mM beta-mercaptoethanol, 0.15 mg/ml 3×FLAG peptide (Sigma-Aldrich)) was added to the resin and incubated at 4° C. for 2.5 hours rotating. The resin was centrifuged at 4000 rpm for 30 seconds, and the supernatant containing purified FLAG-UCHL1 was removed and stored at −80° C.
UCHL1 Biochemical IC50 Assay
Dilution plates were prepared at 21 times the final concentration (2100 μM for a final concentration of 100 µM) in 50% DMSO in a 96-well polypropylene V-bottom plate (Greiner #651201). A typical 8-point dilution series to be 100, 30, 10, 3, 1, 0.3, 0.1, 0.03 μM final. Reactions were performed in duplicate in black 384 well plates (small volume, Greiner 784076) in a final reaction volume of 21 μl. Either 1 μl of 50% DMSO or diluted compound was added to the plate. UCHL1 was diluted in reaction buffer (20 mM Tris, pH 7.5, 100 mM NaCl, 0.05% Tween 20, 0.5 mg/ml BSA, 5 mM—beta mercaptoethanol) to the equivalent of 0.05 μl/well and 10 μl of diluted UCHL1 was added to the compound. Enzyme and compound were incubated for 30 min at room temp. Reactions were initiated by the addition of 50 nM of TAMRA labelled peptide linked to ubiquitin via an iso-peptide bond as fluorescence polarisation substrate. Reactions were read immediately after addition of substrate and following a 2 hr incubation at room temperature. Readings were performed on a Pherastar Plus (BMG Labtech). λ Excitation 540 nm; k Emission 590 nm.
On the technique in general: Polarisation of emitted light reports the rotation of a fluorescent probe.

`C[C@H]1[C@@H](C(=O)Nc2ncc(C3CCOCC3)s2)CCN1C#N` [Example 76, (2S,3S)-1-cyano-2-methyl-N-(5-(tetrahydro-2H-pyran-4-yl)thiazol-2-yl)pyrrolidine-3-carboxamide]: the pIC50 was above 6.00.
As to `Cn1cccc(C(=O)N2CCc3nc(NC(=O)[C@H]4CCN(C#N)C4)sc3C2)c1=O` [Example 195, (S)-1-cyano-N-(5-(1-methyl-2-oxo-1,2-dihydropyridine-3-carbonyl)-4,5,6,7-tetrahydrothiazolo[5,4-c]pyridin-2-yl)pyrrolidine-3-carboxamide], the pIC50 is above 6.00.
Take `N#Cc1ccc(-n2cnc(NC(=O)[C@H]3CCN(C#N)C3)c2)cc1` [Example 177, (S)-1-cyano-N-(1-(4-cyanophenyl)-1H-imidazol-4-yl)pyrrolidine-3-carboxamide]: the pIC50 is above 6.00.
Turning to `N#CN1CC[C@H](C(=O)Nc2cn(CCc3ccccc3)cn2)C1` [Example 147, (S)-1-cyano-N-(1-phenethyl-1H-imidazol-4-yl)pyrrolidine-3-carboxamide], the pIC50 was above 6.00.
Then `C[C@H]1[C@@H](C(=O)Nc2ncc(-c3ccccc3)s2)CCN1C#N` [Example 72, (2S,3S)-1-cyano-2-methyl-N-(5-phenylthiazol-2-yl)pyrrolidine-3-carboxamide], with above 6.00; and `N#CN1CC[C@H](C(=O)Nc2cc(-c3cn4ccnc4cn3)ccn2)C1` [Example 254, (S)-1-cyano-N-(4-(imidazo[1,2-a]pyrazin-6-yl)pyridin-2-yl)pyrrolidine-3-carboxamide], with above 6.00; and `N#CN1CCC(C(=O)Nc2nc3ccccc3s2)C1` (centres unmarked) [Example 18, N-(benzo[d]thiazol-2-yl)-1-cyano-pyrrolidine-3-carboxamide], with 5.00 to 6.00.
Then `Cc1nn(C)cc1-c1ccc2nc(NC(=O)[C@H]3CCN(C#N)C3)sc2c1` [Example 288, (S)-1-cyano-N-(6-(1,3-dimethyl-1H-pyrazol-4-yl)benzo[d]thiazol-2-yl)pyrrolidine-3-carboxamide], with above 6.00; and `N#Cc1ccc(OC2COC2)cc1-n1cnc(NC(=O)[C@H]2CCN(C#N)C2)c1` [Example 250, (S)-1-cyano-N-(1-(2-cyano-5-(oxetan-3-yloxy)phenyl)-1H-imidazol-4-yl)pyrrolidine-3-carboxamide], with above 6.00.
As for `N#CN1CC[C@H](C(=O)Nc2cn(-c3ccccc3)cn2)C1` [Example 41, (S)-1-cyano-N-(1-phenyl-1H-imidazol-4-yl)pyrrolidine-3-carboxamide], the pIC50 was above 6.00.
Under `Cc1noc(C)c1-c1ccc2nc(NC(=O)[C@@H]3CN(C#N)C[C@H]3C(F)(F)F)cn2c1` (racemic) [Example 210, (±)-trans-1-cyano-N-(6-(3,5-dimethylisoxazol-4-yl)imidazo[1,2-a]pyridin-2-yl)-4-(trifluoromethyl)pyrrolidine-3-carboxamide] stands above 6.00; under `N#CN1CC[C@H](C(=O)Nc2ncc(-c3ccncc3)s2)C1` [Example 69, (S)-1-cyano-N-(5-(pyridin-4-yl)thiazol-2-yl)pyrrolidine-3-carboxamide], above 6.00; under `COC1CCN(c2ccc(NC(=O)[C@H]3CCN(C#N)C3)nc2)CC1` [Example 61, (S)-1-cyano-N-(5-(4-methoxy-piperidin-1-yl)pyridin-2-yl)pyrrolidine-3-carboxamide], 5.00 to 6.00.
Take `N#CN1CC[C@H](C(=O)Nc2cc(-c3cccc4[nH]ncc34)ccn2)C1` [Example 262, (S)—N-(4-(1H-indazol-4-yl)pyridin-2-yl)-1-cyanopyrrolidine-3-carboxamide]: the pIC50 is above 6.00.
Then `Cc1noc(C)c1-c1ccc2nc(NC(=O)[C@H]3CCN(C#N)C3)cn2c1C` [Example 137, (S)-1-cyano-N-(6-(3,5-dimethylisoxazol-4-yl)-5-methylimidazo[1,2-a]pyridin-2-yl)pyrrolidine-3-carboxamide], with above 6.00; and `N#CN1C[C@@H](C(=O)Nc2ncc(-c3ccccc3)s2)[C@H](c2cncnc2)C1` (relative stereo) [Example 283, trans-1-cyano-N-(5-phenylthiazol-2-yl)-4-(pyrimidin-5-yl)pyrrolidine-3-carboxamide], with 5.00 to 6.00; and `N#CN1CC[C@H](C(=O)Nc2ncc(-c3cccc4cn[nH]c34)s2)C1` [Example 215, (S)-N-(5-(1H-indazol-7-yl)thiazol-2-yl)-1-cyanopyrrolidine-3-carboxamide], with above 6.00.
Then `N#CN1CCC(C(=O)Nc2ncc(-c3cccnc3)s2)C1` (centres unmarked) [Example 112, 1-cyano-N-(5-(pyridin-3-yl)thiazol-2-yl)pyrrolidine-3-carboxamide], with above 6.00; and `CC(C)(C)c1ccnc(NC(=O)[C@H]2CCN(C#N)C2)c1` [Example 273, (S)-N-(4-(tert-butyl)pyridin-2-yl)-1-cyanopyrrolidine-3-carboxamide], with 5.00 to 6.00; and `Cc1[nH]ncc1-c1ccnc(NC(=O)[C@H]2CCN(C#N)C2)c1` [Example 295, (S)-1-cyano-N-(4-(5-methyl-1H-pyrazol-4-yl)pyridin-2-yl)pyrrolidine-3-carboxamide], with 5.00 to 6.00.
Under `N#CN1CC[C@H](C(=O)Nc2ccn(-c3ccccc3)n2)C1` [Example 45, (S)-1-cyano-N-(1-phenyl-1H-pyrazol-3-yl)pyrrolidine-3-carboxamide] stands 4.52 to 5.00.
With `N#CN1CCC(C(=O)Nc2ccc(N3CCCCC3)cn2)C1` (centres unmarked) [Example 29, 1-cyano-N-(5-(piperidin-1-yl)pyridin-2-yl)pyrrolidine-3-carboxamide], the negative-log IC50 (pIC50) is 5.00 to 6.00.
Then `COC[C@H]1CCCN1c1cnc(NC(=O)[C@H]2CCN(C#N)C2)s1` [Example 99, (S)-1-cyano-N-(5-((R)-2-(methoxymethyl)pyrrolidin-1-yl)thiazol-2-yl)pyrrolidine-3-carboxamide], with above 6.00; and `N#Cc1ccc(-n2cnc(NC(=O)[C@H]3CCN(C#N)C3)c2)cc1OC1COC1` [Example 249, (S)-1-cyano-N-(1-(4-cyano-3-(oxetan-3-yloxy)phenyl)-1H-imidazol-4-yl)pyrrolidine-3-carboxamide], with above 6.00.
Then `N#CN1CC[C@H](C(=O)Nc2nc3ccc(-n4ccnn4)cc3s2)C1` [Example 62, (S)-N-(6-(1H-1,2,3-triazol-1-yl)benzo[d]thiazol-2-yl)-1-cyano-pyrrolidine-3-carboxamide], with above 6.00.
Then `COc1ccnc(NC(=O)[C@H]2CCN(C#N)C2)c1` [Example 53, (S)-1-cyano-N-(4-methoxypyridin-2-yl)pyrrolidine-3-carboxamide], with 5.00 to 6.00; and `Cc1noc(C)c1-c1ccc2nc(NC(=O)[C@H]3CCN(C#N)C3)sc2n1` [Example 286, (S)-1-cyano-N-(5-(3,5-dimethylisoxazol-4-yl)thiazolo[5,4-b]pyridin-2-yl)pyrrolidine-3-carboxamide], with above 6.00; and `N#CN1CC[C@H](C(=O)Nc2ncc(N3CCNC(=O)CC3)s2)C1` [Example 101, (S)-1-cyano-N-(5-(5-oxo-1,4-diazepan-1-yl)thiazol-2-yl)pyrrolidine-3-carboxamide], with above 6.00.
For the compound `C[C@@H]1CN(C#N)C[C@H]1C(=O)Nc1ncc(-c2ccccc2Cl)s1` (racemic) [Example 84, (±)-trans-N-(5-(2-chlorophenyl)thiazol-2-yl)-1-cyano-4-methylpyrrolidine-3-carboxamide], the pIC50 was 5.00 to 6.00.

By pIC50 is commonly meant −log10 of the IC50, conventionally taken in molar units.
